Measured values as given in ChEMBL document CHEMBL4507328, “Data for DCP probe BAY-390” (2021).
Calls of active or inactive are those of the source. No cut-off for these calls is given here.

Assays:
[1] = biological target: Glucocorticoid receptor (Homo sapiens) (UniProt P04150); details: Compound concentration 10.0 uM
[2] = biological target: Muscarinic acetylcholine receptor M3 (Homo sapiens) (UniProt P20309); details: Compound concentration 10.0 uM
[3] = biological target: Transient receptor potential cation channel subfamily A member 1 (Homo sapiens, UniProt O75762); assay: Ephys (human TRPA1)
[4] = biological target: Adenosine Transporter (Cavia porcellus) (UniProt H0V4R7+H0UUG1+H0V3Z5); assay: Inhibition of Transporter, Adenosine at compound concentration of 10.0 uM in the Eurofins-Panlabs radioligand binding assay (Eurofins_assay_202000); format: protein assay; set-up: ligand concentration 0.5 nM, non-specific ligand with concentration 5 uM Nitrobenzylthioinosine, incubation time 30 min, incubation temperature 25 C; details: Compound concentration 10.0 uM
[5] = biological target: T1, Muscarinic acetylcholine receptor M4 (Homo sapiens) (UniProt P08173); details: Compound concentration 10.0 uM
T1 sequence (whole entry): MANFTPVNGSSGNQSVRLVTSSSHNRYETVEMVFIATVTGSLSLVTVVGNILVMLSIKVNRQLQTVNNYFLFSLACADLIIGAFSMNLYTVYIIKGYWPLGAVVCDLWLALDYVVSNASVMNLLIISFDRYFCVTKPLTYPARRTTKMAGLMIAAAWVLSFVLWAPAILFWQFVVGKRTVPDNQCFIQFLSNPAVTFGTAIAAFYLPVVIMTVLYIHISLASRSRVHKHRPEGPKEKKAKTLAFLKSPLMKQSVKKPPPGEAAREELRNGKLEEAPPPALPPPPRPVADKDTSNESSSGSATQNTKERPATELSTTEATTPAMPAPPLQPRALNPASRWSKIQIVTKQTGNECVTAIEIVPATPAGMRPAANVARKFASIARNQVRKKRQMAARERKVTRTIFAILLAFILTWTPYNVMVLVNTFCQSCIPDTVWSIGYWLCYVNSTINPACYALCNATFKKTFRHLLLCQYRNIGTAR

[6] = biological target: 5-hydroxytryptamine receptor 2A (Homo sapiens, UniProt P28223); details: Compound concentration 10.0 uM
Chain of 5-hydroxytryptamine receptor 2A (P28223 whole entry): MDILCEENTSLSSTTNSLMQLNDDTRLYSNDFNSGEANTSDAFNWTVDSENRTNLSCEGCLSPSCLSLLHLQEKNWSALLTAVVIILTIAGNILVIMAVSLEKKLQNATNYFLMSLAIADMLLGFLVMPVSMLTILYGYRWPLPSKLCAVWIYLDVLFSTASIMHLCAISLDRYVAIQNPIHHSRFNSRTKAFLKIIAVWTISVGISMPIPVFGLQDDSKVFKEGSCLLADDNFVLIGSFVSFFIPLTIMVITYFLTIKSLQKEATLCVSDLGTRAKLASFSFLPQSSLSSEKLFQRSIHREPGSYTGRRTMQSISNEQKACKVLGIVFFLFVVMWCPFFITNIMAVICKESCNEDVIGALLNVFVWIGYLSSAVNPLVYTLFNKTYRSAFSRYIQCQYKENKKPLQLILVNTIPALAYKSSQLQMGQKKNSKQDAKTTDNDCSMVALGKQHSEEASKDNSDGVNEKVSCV

[7] = biological target: Insulin receptor (Homo sapiens) (UniProt P06213); details: Rattus norvegicus; Compound concentration 10.0 uM
[8] = biological target: B2 bradykinin receptor (Homo sapiens) (UniProt P30411); details: Compound concentration 10.0 uM
[9] = biological target: Transient receptor potential cation channel subfamily A member 1 (Rattus norvegicus, UniProt Q6RI86); assay: FLIPR Ca2+ assay (rat TRPA1)
Chain of Transient receptor potential cation channel subfamily A member 1 (Rattus norvegicus, UniProt Q6RI86) (Q6RI86 whole entry): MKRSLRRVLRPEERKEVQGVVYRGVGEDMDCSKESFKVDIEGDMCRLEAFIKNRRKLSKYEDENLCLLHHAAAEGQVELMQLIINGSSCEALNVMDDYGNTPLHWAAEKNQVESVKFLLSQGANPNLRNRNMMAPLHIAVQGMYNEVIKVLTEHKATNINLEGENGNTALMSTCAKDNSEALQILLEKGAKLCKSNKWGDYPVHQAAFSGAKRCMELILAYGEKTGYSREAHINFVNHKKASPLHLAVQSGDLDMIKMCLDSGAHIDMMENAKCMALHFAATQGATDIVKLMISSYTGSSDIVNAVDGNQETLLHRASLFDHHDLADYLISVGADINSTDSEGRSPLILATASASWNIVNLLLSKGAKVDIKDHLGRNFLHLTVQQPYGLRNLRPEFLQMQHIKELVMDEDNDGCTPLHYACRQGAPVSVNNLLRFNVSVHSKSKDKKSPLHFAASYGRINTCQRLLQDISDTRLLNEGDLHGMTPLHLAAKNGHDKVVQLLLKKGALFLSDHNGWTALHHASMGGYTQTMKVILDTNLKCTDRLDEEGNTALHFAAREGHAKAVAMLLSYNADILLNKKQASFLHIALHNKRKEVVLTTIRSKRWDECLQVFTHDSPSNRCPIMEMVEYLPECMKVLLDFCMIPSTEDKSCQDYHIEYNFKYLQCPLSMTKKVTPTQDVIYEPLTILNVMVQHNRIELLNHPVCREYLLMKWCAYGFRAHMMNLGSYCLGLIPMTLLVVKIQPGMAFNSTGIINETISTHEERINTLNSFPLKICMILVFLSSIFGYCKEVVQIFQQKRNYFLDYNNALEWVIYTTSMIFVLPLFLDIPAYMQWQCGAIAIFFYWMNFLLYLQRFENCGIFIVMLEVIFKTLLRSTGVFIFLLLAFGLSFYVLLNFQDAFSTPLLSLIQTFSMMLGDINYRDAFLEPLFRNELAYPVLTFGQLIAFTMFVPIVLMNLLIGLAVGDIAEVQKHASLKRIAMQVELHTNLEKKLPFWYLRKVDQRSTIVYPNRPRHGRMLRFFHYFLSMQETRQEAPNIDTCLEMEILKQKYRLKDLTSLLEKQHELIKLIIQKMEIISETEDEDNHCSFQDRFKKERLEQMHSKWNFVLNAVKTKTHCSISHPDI

Rattus norvegicus = organism: Rattus norvegicus; details: Compound concentration 10.0 uM
[10] = biological target: D(3) dopamine receptor (Homo sapiens) (UniProt P35462); details: Compound concentration 10.0 uM
[11] = biological target: Glutamate receptor ionotropic, kainate (Rattus norvegicus) (UniProt P22756+Q01812+P42260+P42264+Q63273); assay: Inhibition of Glutamate, Kainate at 10 µM in the Eurofins-Panlabs radioligand binding assay (Eurofins_assay_232700); details: Compound concentration 10.0 uM
[12] = biological target: Kappa-type opioid receptor (Homo sapiens) (UniProt P41145); details: Compound concentration 10.0 uM
Chain of Kappa-type opioid receptor (Homo sapiens) (P41145 whole entry): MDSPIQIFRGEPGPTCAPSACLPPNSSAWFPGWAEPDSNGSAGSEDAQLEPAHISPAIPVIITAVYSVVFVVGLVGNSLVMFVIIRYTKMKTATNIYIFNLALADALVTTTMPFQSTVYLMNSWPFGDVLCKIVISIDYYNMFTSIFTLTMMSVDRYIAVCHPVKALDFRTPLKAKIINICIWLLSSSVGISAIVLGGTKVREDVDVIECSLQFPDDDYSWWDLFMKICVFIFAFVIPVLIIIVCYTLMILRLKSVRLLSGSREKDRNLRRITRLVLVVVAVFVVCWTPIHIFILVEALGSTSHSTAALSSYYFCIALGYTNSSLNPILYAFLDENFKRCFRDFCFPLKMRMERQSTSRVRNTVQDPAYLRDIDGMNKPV

[13] = biological target: Sodium-dependent noradrenaline transporter (Homo sapiens) (UniProt P23975); details: Compound concentration 10.0 uM
[14] = biological target: Beta-2 adrenergic receptor (Homo sapiens) (UniProt P07550); details: Compound concentration 10.0 uM
Chain of Beta-2 adrenergic receptor (Homo sapiens) (P07550 whole entry, looked up): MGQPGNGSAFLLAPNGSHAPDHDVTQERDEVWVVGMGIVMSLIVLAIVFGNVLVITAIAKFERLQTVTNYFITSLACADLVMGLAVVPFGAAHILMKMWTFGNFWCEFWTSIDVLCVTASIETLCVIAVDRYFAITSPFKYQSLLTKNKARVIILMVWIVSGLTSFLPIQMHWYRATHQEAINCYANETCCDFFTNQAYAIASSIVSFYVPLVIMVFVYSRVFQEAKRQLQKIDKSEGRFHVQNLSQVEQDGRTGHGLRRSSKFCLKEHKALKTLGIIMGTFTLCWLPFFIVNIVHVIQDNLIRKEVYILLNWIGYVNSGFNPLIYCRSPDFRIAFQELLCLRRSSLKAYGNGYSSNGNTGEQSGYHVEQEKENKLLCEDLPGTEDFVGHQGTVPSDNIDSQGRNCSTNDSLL

[15] = biological target: T2, Alpha-2C adrenergic receptor (Homo sapiens) (UniProt P18825); details: Compound concentration 10.0 uM
T2 sequence (whole entry): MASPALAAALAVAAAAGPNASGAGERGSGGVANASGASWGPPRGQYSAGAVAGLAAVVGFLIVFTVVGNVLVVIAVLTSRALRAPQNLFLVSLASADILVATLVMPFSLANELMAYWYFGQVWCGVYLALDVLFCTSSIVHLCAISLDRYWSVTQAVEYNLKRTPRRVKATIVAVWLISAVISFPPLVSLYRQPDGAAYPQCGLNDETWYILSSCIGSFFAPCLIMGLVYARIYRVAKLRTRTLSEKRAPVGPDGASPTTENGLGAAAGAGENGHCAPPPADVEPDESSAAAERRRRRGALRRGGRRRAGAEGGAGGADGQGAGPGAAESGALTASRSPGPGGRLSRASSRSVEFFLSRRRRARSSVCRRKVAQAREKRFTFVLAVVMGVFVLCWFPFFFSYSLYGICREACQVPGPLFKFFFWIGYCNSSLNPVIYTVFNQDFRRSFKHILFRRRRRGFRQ

[16] = biological target: Kappa-type opioid receptor (Homo sapiens) (UniProt P41145); details: Compound concentration 10.0 uM; remark: listed apart in the source
[17] = biological target: Sodium-dependent dopamine transporter (Homo sapiens, UniProt Q01959); assay: Inhibition of Transporter, Dopamine (DAT) at compound concentration of 10.0 uM in the Eurofins-Panlabs radioligand binding assay (Eurofins_assay_220320); set-up: ligand concentration 0.15 nM, non-specific ligand with concentration 10 uM Nomifensine, incubation time 3 h, incubation temperature 4 C
Chain of Sodium-dependent dopamine transporter (Q01959 whole entry): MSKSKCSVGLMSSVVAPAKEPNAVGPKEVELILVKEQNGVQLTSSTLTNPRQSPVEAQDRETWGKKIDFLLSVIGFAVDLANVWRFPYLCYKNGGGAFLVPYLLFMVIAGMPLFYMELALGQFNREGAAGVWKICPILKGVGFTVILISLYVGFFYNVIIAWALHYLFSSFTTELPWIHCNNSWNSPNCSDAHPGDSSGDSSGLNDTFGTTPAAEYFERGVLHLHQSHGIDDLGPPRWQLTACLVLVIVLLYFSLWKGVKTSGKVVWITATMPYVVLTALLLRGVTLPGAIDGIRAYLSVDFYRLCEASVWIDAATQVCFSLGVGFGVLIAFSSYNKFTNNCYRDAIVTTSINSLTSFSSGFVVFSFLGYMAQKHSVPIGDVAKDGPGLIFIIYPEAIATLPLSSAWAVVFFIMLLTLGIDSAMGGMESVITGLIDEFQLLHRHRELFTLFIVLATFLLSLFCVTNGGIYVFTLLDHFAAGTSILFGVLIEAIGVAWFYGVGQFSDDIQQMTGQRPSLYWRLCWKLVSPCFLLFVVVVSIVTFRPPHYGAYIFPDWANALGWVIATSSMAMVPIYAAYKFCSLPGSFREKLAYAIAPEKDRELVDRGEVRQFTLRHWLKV

[18] = biological target: Sigma intracellular receptor 2 (Homo sapiens) (UniProt Q5BJF2); details: Compound concentration 10.0 uM
Chain of Sigma intracellular receptor 2 (Homo sapiens) (Q5BJF2 whole entry): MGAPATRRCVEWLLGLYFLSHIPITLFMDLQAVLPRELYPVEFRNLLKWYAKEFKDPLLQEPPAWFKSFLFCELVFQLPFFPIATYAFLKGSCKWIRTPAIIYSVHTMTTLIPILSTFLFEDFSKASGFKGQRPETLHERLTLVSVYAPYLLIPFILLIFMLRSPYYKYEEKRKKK

[19] = biological target: Transient receptor potential cation channel subfamily V member 1 (Homo sapiens, UniProt Q8NER1); assay: TRP selectivity screen (TRPV1)
Chain of Transient receptor potential cation channel subfamily V member 1 (Q8NER1 whole entry): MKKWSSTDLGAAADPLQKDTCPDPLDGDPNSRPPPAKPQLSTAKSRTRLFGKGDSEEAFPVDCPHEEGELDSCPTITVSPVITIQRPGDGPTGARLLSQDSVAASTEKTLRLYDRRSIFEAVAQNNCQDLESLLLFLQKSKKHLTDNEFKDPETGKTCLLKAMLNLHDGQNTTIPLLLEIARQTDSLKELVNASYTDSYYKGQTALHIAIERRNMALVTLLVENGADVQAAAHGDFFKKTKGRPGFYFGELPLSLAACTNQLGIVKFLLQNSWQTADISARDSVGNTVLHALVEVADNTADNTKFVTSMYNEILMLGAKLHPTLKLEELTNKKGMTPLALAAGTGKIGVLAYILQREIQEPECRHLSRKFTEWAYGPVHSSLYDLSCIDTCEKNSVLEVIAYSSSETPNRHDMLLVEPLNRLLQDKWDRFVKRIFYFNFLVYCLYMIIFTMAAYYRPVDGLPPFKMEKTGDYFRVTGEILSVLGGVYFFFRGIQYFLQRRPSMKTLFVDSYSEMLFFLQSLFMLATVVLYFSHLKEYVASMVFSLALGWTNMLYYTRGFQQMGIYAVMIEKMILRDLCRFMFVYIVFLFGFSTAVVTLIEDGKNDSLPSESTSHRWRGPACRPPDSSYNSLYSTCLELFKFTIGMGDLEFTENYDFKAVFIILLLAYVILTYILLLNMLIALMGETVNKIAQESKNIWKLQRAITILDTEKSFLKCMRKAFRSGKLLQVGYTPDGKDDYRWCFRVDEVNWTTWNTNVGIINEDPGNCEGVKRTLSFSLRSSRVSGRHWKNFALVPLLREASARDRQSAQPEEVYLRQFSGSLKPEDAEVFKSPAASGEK

[20] = biological target: Alpha-1B adrenergic receptor (Homo sapiens) (UniProt P35368); details: Compound concentration 10.0 uM
Chain of Alpha-1B adrenergic receptor (Homo sapiens) (P35368 whole entry): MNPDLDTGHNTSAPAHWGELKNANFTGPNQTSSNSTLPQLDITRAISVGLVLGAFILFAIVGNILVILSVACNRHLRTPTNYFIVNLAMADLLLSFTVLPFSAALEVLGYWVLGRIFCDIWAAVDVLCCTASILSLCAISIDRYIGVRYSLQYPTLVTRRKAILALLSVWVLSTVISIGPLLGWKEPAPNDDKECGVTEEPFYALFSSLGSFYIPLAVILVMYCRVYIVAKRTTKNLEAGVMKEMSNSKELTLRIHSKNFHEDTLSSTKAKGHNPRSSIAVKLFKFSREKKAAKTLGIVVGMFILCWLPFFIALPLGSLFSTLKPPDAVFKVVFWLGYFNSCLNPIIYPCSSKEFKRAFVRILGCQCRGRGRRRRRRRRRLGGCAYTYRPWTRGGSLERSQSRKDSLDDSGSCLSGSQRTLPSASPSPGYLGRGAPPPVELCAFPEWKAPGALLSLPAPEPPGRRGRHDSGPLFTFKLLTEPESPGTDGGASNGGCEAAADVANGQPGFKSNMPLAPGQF

[21] = biological target: T3, Muscarinic acetylcholine receptor M2 (Homo sapiens) (UniProt P08172); details: Compound concentration 10.0 uM
T3 sequence (whole entry): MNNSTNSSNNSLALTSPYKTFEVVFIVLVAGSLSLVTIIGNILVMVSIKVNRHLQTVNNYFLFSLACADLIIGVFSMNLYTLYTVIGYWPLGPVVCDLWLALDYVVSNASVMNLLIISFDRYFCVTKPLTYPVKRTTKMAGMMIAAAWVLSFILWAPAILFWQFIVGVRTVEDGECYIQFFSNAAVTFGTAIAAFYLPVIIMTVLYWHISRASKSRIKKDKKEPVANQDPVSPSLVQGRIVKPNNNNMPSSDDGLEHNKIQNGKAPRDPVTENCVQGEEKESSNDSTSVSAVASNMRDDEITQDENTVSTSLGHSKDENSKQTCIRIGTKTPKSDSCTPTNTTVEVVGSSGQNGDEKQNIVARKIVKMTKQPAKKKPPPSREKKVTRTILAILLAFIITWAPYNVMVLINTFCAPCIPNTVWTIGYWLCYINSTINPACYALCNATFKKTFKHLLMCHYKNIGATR

[22] = biological target: Delta-type opioid receptor (Homo sapiens) (UniProt P41143); details: Compound concentration 10.0 uM
Chain of Delta-type opioid receptor (Homo sapiens) (P41143 whole entry): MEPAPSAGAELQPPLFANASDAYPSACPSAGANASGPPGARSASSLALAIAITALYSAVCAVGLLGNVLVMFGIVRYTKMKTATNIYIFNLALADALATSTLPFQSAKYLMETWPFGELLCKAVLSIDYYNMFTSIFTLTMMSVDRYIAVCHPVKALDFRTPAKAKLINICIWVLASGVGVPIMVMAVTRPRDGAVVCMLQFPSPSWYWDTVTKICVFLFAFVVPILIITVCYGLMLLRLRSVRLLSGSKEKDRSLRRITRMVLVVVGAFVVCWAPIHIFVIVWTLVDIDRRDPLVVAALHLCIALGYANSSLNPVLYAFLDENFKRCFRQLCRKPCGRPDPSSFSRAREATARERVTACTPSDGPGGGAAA

[23] = biological target: 5-hydroxytryptamine receptor 1E (Homo sapiens) (UniProt P28566); details: Compound concentration 10.0 uM
[24] = biological target: Histamine H3 receptor (Homo sapiens) (UniProt Q9Y5N1); details: Compound concentration 10.0 uM

Row | Structure (SMILES) | inhibition [2] [%] | inhibition [5] [%] | inhibition [6] [%] | IC50 [9] | inhibition (Rattus norvegicus) [%] | inhibition [12] [%] | inhibition [14] [%] | inhibition [15] [%] | inhibition [18] [%] | IC50 [19] | inhibition [20] [%] | inhibition [21] [%] | inhibition [22] [%] | other results
1 | O[C@]1(C(F)(F)F)CCCC[C@H]1Nc1ccc(F)cc1 [BAY-390] | 4.73 | 13.9 | 69.4 | 63 nM (active) | 2.79 | 9.94 | 7.94 | 4.19 | 8.95 | > 25000 nM (not active) | 8.7 | -2.71 | 21.4 | inhibition [1]: 4%; IC50 [3]: 82 nM (active); inhibition [4]: -2%; inhibition [7]: 8%; inhibition [8]: 4%; inhibition [10]: 9%; inhibition [11]: -3%; inhibition [13]: 0.78%; inhibition [16]: 7%; IC50 [17]: 1200 nM; Ki [17]: 940 nM
2 | COc1cc(N[C@@H]2CCCC[C@]2(O)C(F)(F)F)ccc1F [BAY-9897] | 25.6 | -3.95 | 1 | > 25000 nM (not active) | -1.71 | 10.5 | 22.2 | -3.92 | 27.8 | > 25000 nM (not active) | 0.41 | 3.81 | 14.4 | inhibition [23]: -4.13%; inhibition [24]: -2.34%
